The values that follow come from patent US10689395B2, “Tricyclic fused pyridin-2-one derivatives and their use as BRD4 inhibitors” (JUBILANT BIOSYS LIMITED, priority 2015, dated 2020).

One experiment concerns the target BRD4-BD1 (Homo sapiens (Human), UniProt O60885). Description: BRD4 AlphaLISA (Perkin Elmer). The following applies: 5 nM BRD4-BD1, 12 nM biotinylated substrate, read-out: BRD4_BD1 IC50_μM. The experiment is classed as binding. On the procedure: BRD4 AlphaLISA (Perkin Elmer)
Compounds were diluted by step-down dilution method (final concentration of DMSO was 1%) and added to the wells of a 384 well opti plate at desired concentrations. 5 nM BDR4-BD1 enzyme (produced in-house) and 12 nM of biotinylated substrate were added to the wells, covered and incubated at room temperature (RT) for 1 h. At the end of 1 h 250 ng of GSH acceptor beads were added to the well and incubated for 1 h at RT; then 500 ng of streptavidin donor beads were added and incubated again for 1 h at RT. Plates were read in a Pherastar reader at 680 nm excitation and 570 nm emission. As detailed above, compounds were tested for both BRD4 enzyme inhibitory activities and IC50 were determined.

A further experiment has as its system MV4-11 cells. Description: Anticancer activity: Alamar Blue assay, 3-day proliferation. The experiment is classed as cell-based. The following applies: AML cell line MV4-11, 72 h, read-out: MV4-11 EC50_μM. On the procedure:
Anticancer Activity: Alamar Blue Assay
The impact of the compounds on cancer cell proliferation was determined using the AML cell line MV4-11 (ATCC) in a 3-day proliferation assay. MV4-11 cells were maintained in RPMI supplemented with 10% FBS at 37° C., 5% CO2. For compound testing, MV4-11 cells were plated in a 96-well black bottom plate at a density of 15,000 cells/well in 100 μL culture media and incubated at 37° C. overnight. Compound dilution series were prepared in DMSO via a 3-fold serial dilution from 100 μM to 0.005 μM. The DMSO dilution series were then diluted with media, with the final compound concentrations added to the wells ranging from 10 μM to 0.0005 μM. […] The fluorescent readings from the Alamar Blue assay were normalized to the DMSO treated cells and analyzed using the GraphPad Prism software with sigmoidal curve fitting to obtain EC50.
Background: Resazurin is reduced to fluorescent resorufin, in cell work by metabolically active cells.

Like-named read-outs stand apart in the source and are kept apart here.

`CCNC(=O)CC1N=C(c2ccc(C#N)cc2)c2c(sc(C)c2C)-c2cn(C)c(=O)cc21` (stereo in doubt) [k, (R)-2-(4-(4-cyanophenyl)-2,3,9-trimethyl-8-oxo-8,9-dihydro-6H-pyrido[4,3-c]thieno[2,3-e]azepin-6-yl)-N-ethylacetamide]: the IC50 at BRD4-BD1 was under 0.0005 µM. Also, the EC50 in the experiment with MV4-11 cells (Homo sapiens) was found to be 0.025 µM.

For the compound `CCNC(=O)CC1N=C(c2ccc(Cl)cc2)c2cc(OC)ncc2-c2cn(C)c(=O)cc21` (racemic) [t, ±2-(7-(4-chlorophenyl)-9-methoxy-2-methyl-3-oxo-3,5-dihydro-2H-dipyrido[4,3-c:3′,4′-e]azepin-5-yl)-N-ethylacetamide], the IC50 on BRD4-BD1 stood at 0.002 µM. Further, the EC50 with MV4-11 cells was 0.017 µM.

In the case of `Cc1sc2c(c1C)C(c1ccc(Cl)cc1)=NC(CC(=O)Nc1ccc(O)cc1)c1cc(=O)n(C)cc1-2` (racemic) [h, ±2-(4-(4-chlorophenyl)-2,3,9-trimethyl-8-oxo-8,9-dihydro-6H-pyrido[4,3-c]thieno[2,3-e]azepin-6-yl)-N-(4-hydroxyphenyl)acetamide], the IC50 at BRD4-BD1 came to 0.033 µM.

With `CCNC(=O)CC1OC(c2ccc(Cl)cc2)c2c(sc(C)c2C)-c2cn(C)c(=O)cc21` (racemic) [bb, ±2-(4-(4-chlorophenyl)-2,3,9-trimethyl-8-oxo-4,6,8,9-tetrahydrothieno[2′,3′:5,6]oxepino[4,3-c]pyridin-6-yl)-N-ethylacetamide], the IC50 on BRD4-BD1 came out at 0.001 µM. Further, in the experiment with MV4-11 cells, the EC50 was under 0.0005 µM.

As for `Cc1sc2c(c1C)C(c1ccc(Cl)cc1)OC(CC(N)=O)c1cc(=O)n(C)cc1-2` (racemic) [ee, ±2-(4-(4-chlorophenyl)-2,3,9-trimethyl-8-oxo-4,6,8,9-tetrahydrothieno[2′,3′:5,6]oxepino[4,3-c]pyridin-6-yl)acetamide], the IC50 at BRD4-BD1 was determined as 0.002 µM. Further, the EC50 in the experiment on MV4-11 cells (Homo sapiens) amounted to 0.007 µM.

On to `CCNC(=O)C[C@@H]1N=C(c2ccc(Cl)cc2)c2c(cnn2C)-c2cn(C)c(=O)cc21` [z, (S)-2-(4-(4-chlorophenyl)-3,9-dimethyl-8-oxo-3,6,8,9-tetrahydropyrazolo[3,4-c]pyrido[3,4-e]azepin-6-yl)-N-ethylacetamide], for which the IC50 on BRD4-BD1 turned out to be 0.005 µM. The EC50 in the experiment with MV4-11 cells (Homo sapiens) was found to be 0.053 µM.

In the case of `CCOC(=O)CC1N=C(c2ccc(Cl)cc2)c2nc(C)sc2-c2cn(C)c(=O)cc21` (racemic) [l, ±Ethyl 2-(4-(4-chlorophenyl)-2,9-dimethyl-8-oxo-8,9-dihydro-6H-pyrido[4,3-c]thiazolo[5,4-e]azepin-6-yl)acetate], the IC50 at BRD4-BD1 stood at 0.14 µM. Also, the EC50 with MV4-11 cells was determined as 0.43 µM.

As for `Cc1sc2c(c1C)C(c1ccc(Cl)cc1)=NC(CC(N)=O)c1cc(=O)n(C)cc1-2` (racemic) [e, ±2-(4-(4-chlorophenyl)-2,3,9-trimethyl-8-oxo-8,9-dihydro-6H-pyrido[4,3-c]thieno[2,3-e]azepin-6-yl)acetamide], the IC50 at BRD4-BD1 turned out to be 0.002 µM. In addition, in the experiment with MV4-11 cells (Homo sapiens), the EC50 came out at 0.007 µM.

On to `CCNC(=O)CC1N=C(CC2CC2)c2c(sc(C)c2C)-c2cn(C)c(=O)cc21` (racemic) [r, ±2-(4-(cyclopropylmethyl)-2,3,9-trimethyl-8-oxo-8,9-dihydro-6H-pyrido[4,3-c]thieno[2,3-e]azepin-6-yl)-N-ethylacetamide], for which the IC50 at BRD4-BD1 is 0.01 µM. Also, the EC50 in the experiment on MV4-11 cells came to 0.157 µM.

As to `CCNC(=O)CC1N=C(c2ccc(Cl)cc2)c2nc(C)sc2-c2cn(C)c(=O)cc21` (racemic) [m, ±2-(4-(4-chlorophenyl)-2,9-dimethyl-8-oxo-8,9-dihydro-6H-pyrido[4,3-c]thiazolo[5,4-e]azepin-6-yl)-N-ethylacetamide], the IC50 at BRD4-BD1 is 0.001 µM. For the same compound, in the experiment with MV4-11 cells, the EC50 is 0.14 µM.

In the case of `Cc1sc2c(c1C)C(c1ccc(Cl)cc1)OC(CCO)c1cc(=O)n(C)cc1-2` (racemic) [hh, ±4-(4-chlorophenyl)-6-(2-hydroxyethyl)-2,3,9-trimethyl-4,9-dihydrothieno[2′,3′:5,6]oxepino[4,3-c]pyridin-8(6H)-one], the IC50 on BRD4-BD1 amounted to 0.017 µM.

With `CCNC(=O)CC1OC(c2ccc(Cl)cc2)c2c(cnn2C)-c2cn(C)c(=O)cc21` (racemic) [ll, ±2-(4-(4-chlorophenyl)-3,9-dimethyl-8-oxo-4,6,8,9-tetrahydro-3H-pyrazolo[4′,3′:5,6]oxepino[4,3-c]pyridin-6-yl)-N-ethylacetamide], the IC50 on BRD4-BD1 stood at 0.001 µM. Besides, in the experiment on MV4-11 cells, the EC50 is under 0.0005 µM.

In the case of `CCNC(=O)CC1N=C(c2ccc(Cl)cc2)c2c(sc(C)c2C)-c2cn(C)c(=O)cc21` (racemic) [b, ±2-(4-(4-chlorophenyl)-2,3,9-trimethyl-8-oxo-8,9-dihydro-6H-pyrido[4,3-c]thieno[2,3-e]azepin-6-yl)-N-ethylacetamide], on BRD4-BD1, the IC50 was found to be 0.0022 µM. Moreover, the EC50 with MV4-11 cells (Homo sapiens) was determined as 0.01 µM.

In the case of `CCOC(=O)CC1N=C(c2ccc(Cl)cc2)c2c(cnn2C)-c2cn(C)c(=O)cc21` (racemic) [w, ±Ethyl 2-(4-(4-chlorophenyl)-3,9-dimethyl-8-oxo-3,6,8,9-tetrahydropyrazolo[3,4-c]pyrido[3,4-e]azepin-6-yl)acetate], the IC50 on BRD4-BD1 was 0.01 µM. In addition, the EC50 with MV4-11 cells worked out at 0.026 µM.
